What was measured:
red blood cells = test: Evaluation of hemolysis; format: cell-based, mice; details: 1 mg/mL in DPBS; 1×10^8 mouse red blood cells; 4 hours at 37° C.; absorbance at 450 nm
Procedure: In order to check whether the nitric oxide-sensitive hydrogel has in vivo stability after being administered into the body, first, red blood cells were separated from the blood collected from mice. A DPBS solution including 1 mg/mL Example 1, the nitric oxide-cleavable crosslinker (NOCCL), and acrylamide was introduced into 1×10^8 cells of the red blood cells thus prepared, and the mixture was thoroughly mixed. This solution was left to stand for 4 hours in a constant temperature tank at 37° C. Next, the solution was centrifuged, subsequently the supernatant was transferred onto a 96-well plate, and the absorbance at 450 nm was measured to calculate the degree of hemolysis.

[1] = Nitric oxide scavenging ability (Griess reagent)
Procedure: In order to check whether the nitric oxide-cleavable crosslinker (NOCCL) produced according to Production Example 1 can actually scavenge nitric oxide, Griess reagent was used, and 100 μM nitric oxide and 10 μM nitric oxide were treated to check the scavenging ability of the nitric oxide-cleavable crosslinker. At this time, N,N′-methylene bisacrylamide (BIS) was used as a comparative group, and water was used as a control group.

Compound	degree of hemolysis (red blood cells)	nitric oxide scavenged as compared to the comparative group ([1]; 100 μM and 10 μM nitric oxide, comparative group BIS) [%]	nitric oxide scavenging ability ([1]; high concentration (100 μM) of nitric oxide) [%]
C=CC(N)=O [acrylamide]	up to 99%	–	–
C=CC(=O)Nc1ccc(NC(=O)C=C)c(N)c1 [nitric oxide-cleavable crosslinker, N,N-(2-amino-1,4-phenylene) diacrylamide]	did not cause hemolysis	≥ 30	≥ 50

— patent US11426426B2, “Pharmaceutical composition for preventing or treating inflammatory diseases, containing nitrogen monoxide-sensitive acrylamide-based polymer” (POSTECH ACADEMY-INDUSTRY FOUNDATION, priority 2018, dated 2022)
